{
  "source": "patent US20260083698A1",
  "about": "“Synergistic Stimulation of Mucociliary Clearance to Treat Mucus Obstruction in Cystic Fibrosis and Other Muco-Obstructive Disorders” (The Board of Trustees of the Leland Stanford Junior …, priority 2022, published 2026)",
  "key": {"piglet tracheal rings": {"system": "piglet tracheal rings", "test": "Airway narrowing: lumen area of thin sliced tracheal rings, methacholine", "design": "species or system pig", "settings": "0.3 or 0.6 mM methacholine alone", "procedure": "Airway smooth muscle contraction measurement. Two methods were used to measure tracheal smooth muscle contraction. One is designed to measure airway narrowing using thin sliced tracheal rings. Piglet or ferret tracheal ring preparations of ˜2 mm were submerged and securely pinned on a Sylgard-lined Petri dish filled with KRB solution at 37° C. and pH 7.4. Digital images of tracheal ring contractions in response to agonists for 1-10 min intervals were recorded with a Nikon digital camera and the inner lumen surface area of the tracheal ring was calculated using ImageJ (NIH, MD/USA). The other method is using a force transducer. One end of an isolated ferret trachealis muscle bundle was secured in a Sylgard-lined Petri dish filled with KRB solution and the other end was attached by 26-gauge wire to a previously calibrated strain gauge (series 400A force transducer system, Cambridge Technology, MA/USA)."}, "WT piglet tracheas": {"system": "WT piglet tracheas", "test": "Mucociliary clearance velocity (MCCV) in ex vivo WT piglet tracheas", "design": "species or system pig", "description": "MCCV in tracheas was measured from 2 to 5 days old WT piglets (see “Methods” section for details). […] The 8 piglet tracheas were divided into two groups and tested 4 by applying forskolin first and 4 by applying carbachol first, followed by the combined agonists.\nThese experiments used forskolin to elevate cAMP.\nPig tissues. Newborn WT piglet tracheas (2-5 days old) were directly obtained at the swine facility of UC Davis or from the laboratory of David Stoltz, University of Iowa, via overnight priority express. Postmortem (<1 h) tracheas from young adult Yorkshire pigs (30-50 kg) and 5-12 months old M. putorius ferrets were from animal facilities at Stanford and Gilroy/CA. All methods using animal tracheae were carried out in accordance with relevant guidelines and regulations of Stanford University and animal protocols were approved (Stanford IACUC protocol#: 10,048). Piglet tracheas were shipped in DMEM cell culture medium, other animal tissues were transported to the laboratory in cold PhysioSol™ solution (Hospira, IL/USA) and then transferred to icecold Krebs Ringer bicarbonate (KRB) buffer gassed with 95% O2 and 5% CO2 and kept at 4° C. until use. The KRB buffer contained (in mM): 115 NaCl, 25 NaHCO3, 2.4 K2HPO4, 0.4 KH2PO4, 1.2 MgCl2, 1.2 CaCl2, 10 glucose, and 1.0 μM indomethacin, adjusted to pH 7.2 and ˜290 mOsm at room temperature.\nMCCV measurement. Details are in the previous reports (16,59,60). Briefly, each whole length ferret or piglet trachea, or a CF tracheal trim, was cut open along the mid-dorsal line and mounted mucosal side up onto a Sylgard elastomer platform. […] The prepared trachea was placed into a sealed, humidified chamber bubbled continuously with gas (95%/5%-O2/CO2) with the serosal surface bathed with KRB buffer±drugs. […] Then excess apical solution was drained, and tissue was incubated for an additional 10 min before starting baseline measurements of MCCV. Drugs were added by bath replacement with pre-warmed bath+drug(s). Summary MCCV data are reported as a single number and based on the averaged MCCV during the last 20 min of the treatment period unless stated otherwise.\nMCCV (all values are in mm/min) was then measured for 90-120 min and plotted as MCCV vs time and agonist(s) in FIG. 8.\nIt was hypothesized that the synergistic MCC induced by β-adrenergic and cholinergic agonists involved ENaC inhibition."}, "[1]": {"system": "sheep with induced CF airway disease", "test": "Tracheal mucus velocity (TMV) in sheep CF model (CFTRinh172 + hNE)", "type": "in vivo", "settings": "inhalation, 20 μg Formoterol", "procedure": "Briefly, adult sheep are placed in an upright position in a specialized body harness and under local anesthesia the animals are nasally intubated with a standard endotracheal (ET) tube. Tracheal mucus velocity (TMV), the in vivo equivalent of MCCV, is measured by a fluoroscopic technique. Five to seven radiopaque Teflon/bismuth trioxide disks (1 mm in diameter, 0.8-mm in thickness, and 1.8 mg in weight) are insufflated into the mid-portion of the animal's trachea. Once the disks are delivered into the trachea, the cephalad-axial velocity of each individual disk is recorded on videotape from a portable image intensifier unit in-line with the fluoroscope. The mean value of all the disk velocities is calculated for a given time point, with new disks insufflated pat subsequent time points. After baseline values are determined, animals receive by aerosolization 10 mg of CFTRinh172 and TMV measurements are repeated hourly for the following 2 hours. Then the animals receive by aerosolization 1190 mU of human Neutrophil Elastase (hNE) and TMV measurements are repeated hourly for the following 2 hours. […] Methacholine alone was not tested as this will induce severe bronchospasm and compromise the life of the animal. After test agent administration by inhalation, the TMV was measured hourly for 12 hours and at 24 hours."}, "ex vivo WT pig tracheas": {"system": "ex vivo WT pig tracheas", "test": "ASL height by synchrotron-based phase contrast imaging", "settings": "10 μM formoterol (T30-T50); synergy agonists (T65-T85)", "description": "ASL heights were determined in pig tracheal preparations using synchrotron-based phase contrast imaging (PCI). The synchrotron beamline produces enough parallel spatial coherence X-ray to increase the contrast between airway lumen and ASL layer by PCI. When X-rays pass through the intact tracheal preparation, the difference in refractive index between ASL and airway lumen results in a phase shift of X-rays that causes a distinctive interference pattern shown on the charge-coupled device (CCD) detector as variations in X-ray intensity."}, "pig tracheal mucosa": {"system": "pig tracheal mucosa", "test": "Short circuit current (Isc) and conductance, Ussing chamber, pig", "settings": "pig tracheal mucosa; sequential 10 μM forskolin, 0.3 μM carbachol, 10 μM benzamil, 20 μM BPO-27, 200 μM niflumic acid", "text": "FIG. 4. Combined agonists inhibit sodium absorption and stimulate anion secretion by surface epithelia. (A) Cartoon of two electrogenic, ion transport pathways across airway apical epithelium: anion secretion increases surface fluid, Na+ absorption decreases surface fluid. The two pathways have opposite effects on fluid depth, but additive effects on short circuit current (Isc) because of their opposite valence and transport directions. (B) Raw trace of Isc across pig tracheal epithelium using Chart 4 software. After reaching a stable, unstimulated Isc (here, >2 h post-mounting), 10 μM forskolin, 0.3 μM carbachol, 10 μM benzamil, 20 μM benzopyrimido-pyrrolo-oxazinedione (BPO-27) and 200 μM niflumic acid were sequentially added at times shown. (C, D) Pig tracheal mucosa: averaged Δ Isc plots over time in response to (C) forskolin alone followed by forskolin+carbachol and (D) reversed order of agonist addition. (E & F) Ferret tracheal mucosa: averaged A Isc plots with same protocol as for pigs. Pig traces (C, D) are based on 10-12 experiments with tissues from 6 to 7 pigs. Ferret traces (E, F) are from 7 experiments with tissues from 5 ferrets.\nCombined agonists stimulate epithelial surface anion secretion and inhibit Na^+ absorption. The surface epithelia also modify ASL. FIG. 4A is a cartoon of the main ion flows controlling ASL depth: anion-mediated fluid secretion increases, and Na^+-mediated fluid absorption decreases ASL depth. It was hypothesized that the combined agonists increase ASL depth and thus MCCV by stimulating secretion and inhibiting absorption (see also FIG. 6). […] With no counterbalancing absorption ASL depth is predicted to increase (dotted gold line in FIG. 6A) unless MCCV increases.\nInhibiting Na+ absorption would increase net fluid accumulation on the surface. […]\nElectrophysiology. […] Total tissue conductance was calculated by applying Ohm's law to the Isc deflection resulting from a 1 mV pulse across the tissues every 20 s during the experiment. […]"}},
  "data": [
    {"molecule": "CC(=O)OC(C)C[N+](C)(C)C", "note": "(centres unmarked) [methacholine]", "values": [
      {"measurement": "sustained reduction of lumen area", "setting": "piglet tracheal rings", "result": "20-40%"},
      {"measurement": "effect on MCCV", "setting": "WT piglet tracheas; piglet tracheas, 10 μM formoterol or 0.3 μM methacholine alone", "result": "only a small increase"}
    ]},
    {"molecule": "NC(=NCc1ccccc1)NC(=O)c1nc(Cl)c(N)nc1N", "note": "[benzamil]", "values": [
      {"measurement": "increase of baseline MCCV by ENaC inhibition", "setting": "WT piglet tracheas; 10 μM benzamil vs without benzamil, piglets", "result": "~6", "unit": "times"},
      {"measurement": "baseline MCCV with benzamil", "setting": "WT piglet tracheas; 10 μM benzamil, no agonists, piglets", "result": "3.0±0.7", "unit": "mm/min"}
    ]},
    {"molecule": "COc1ccc(CC(C)NCC(O)c2ccc(O)c(NC=O)c2)cc1", "note": "(centres unmarked) [formoterol]", "values": [
      {"measurement": "effect on TMV compared to the control", "setting": "[1]", "result": "barely had any effect"},
      {"measurement": "average rate of ASL height increase", "setting": "ex vivo WT pig tracheas", "result": "1.7±0.1", "unit": "μm/min"}
    ]},
    {"molecule": "O=C(O)c1cccnc1Nc1cccc(C(F)(F)F)c1", "note": "[niflumic acid]", "values": [
      {"measurement": "effect on Isc, raw trace", "setting": "pig tracheal mucosa", "result": "steep drops in Isc and conductance"}
    ]},
    {"molecule": "Cn1c(=O)c2c(-c3ccccc3)n3c(c2n(C)c1=O)C(c1ccc(Br)o1)Oc1ccc(C(=O)O)cc1-3", "note": "(centres unmarked) [BPO-27, benzopyrimido-pyrrolo-oxazinedione]", "values": [
      {"measurement": "effect on Isc, raw trace", "setting": "pig tracheal mucosa", "result": "steep drops in Isc and conductance"}
    ]}
  ]
}
